Experimental data reported in patent US7291349B2, “Anti-dermatophytic preparation and use thereof” (priority 2003, dated 2007).

System: Candida albicans MTCC1637
Test: Broth assay (two fold dilution method) of garlic extract in combination with essential oils
Format: cell-based
Conditions: Table 3
Description: Following tables presents the results of evaluation of antifungal activities of water or solvent extracts of garlic in combinations with the essential oils. […] The combinations of essential oils and garlic extracts were made according to their MICs ([…]). […] But only selected oils viz. Mentha spicata van. […] The activity increased to several folds when these combinations were added to constituent of essential oil like menthyl acetate. […] The broth assay was carried out following the NCCLS documents published by National Committee for Clinical and Laboratory Standards (USA) and disc diffusion assay according to Bauer et al (Bauer et al, […], American Journal of Clinical Pathology, 45:493-496).

Fold enhancement on the basis of Reduction in the MIC of oil in combination (garlic extract 1/1600): 2
Reduction in the MIC of oil (garlic extract 1/1600 in combination): 1/1600
Fold enhancement on the basis of Reduction in the MIC of oil in combination (garlic extract 1/3200): 2
Reduction in the MIC of oil (garlic extract 1/3200 in combination): 1/1600
Fold enhancement on the basis of Reduction in the MIC of oil in combination (garlic extract 1/6400): 2
Reduction in the MIC of oil (garlic extract 1/6400 in combination): 1/1600
MIC of essential oil/extract (alone, dilution): 1/800
SMILES: CC(=O)OC1CC(C)CCC1C(C)C (stereo not shown) [Menthyl acetate]
FIC value (garlic extract 1/1600): 1.0
Type of Interaction (garlic extract 1/1600): Indifference
FIC value (garlic extract 1/3200): 0.75
Type of Interaction (garlic extract 1/3200): Additive
FIC value (garlic extract 1/6400): 0.625
Type of Interaction (garlic extract 1/6400): Additive
